PubChem BioAssay AID1963964 (Molecular Pharmacology Branch, DTP, NCI, 2024)
pIC50: −log10 of the molar value.

System: 997726-040-R-J2-PDC tumor spheroids, viability
Experiment: Anticancer human tumor 997726-040-R-J2-PDC patient-derived squamous cell lung carcinoma cell line growth inhibition [PI3K]
Conditions: spheroids with HUVEC and MSC; for pIC50: curve of first compound; for viability, T/C: stronger effect = lower value
Method in brief: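 Spheroid viability read-out. Co-cultures contained the tumor line plus HUVEC and human MSCs. Each agent was paired with a PI3K inhibitor (inavolisib, alpelisib, duvelisib, copanlisib) across half-log dilutions starting at clinical Cmax, or at 10 microM when Cmax was unknown.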

[1] = second compound 0.0316 µM, first compound 0.0316 µM
[2] = second compound 0.0316 µM, first compound 0.1 µM
[3] = second compound 0.0316 µM, first compound 0.316 µM
[4] = second compound 0.0316 µM, first compound 1 µM
[5] = second compound 0.1 µM, first compound 0.0316 µM
[6] = second compound 0.1 µM, first compound 0.1 µM
[7] = second compound 0.1 µM, first compound 0.316 µM
[8] = second compound 0.1 µM, first compound 1 µM
[9] = second compound 0.316 µM, first compound 0.0316 µM
[10] = second compound 0.316 µM, first compound 0.1 µM
[11] = second compound 0.316 µM, first compound 0.316 µM
[12] = second compound 0.316 µM, first compound 1 µM
[13] = second compound 1 µM, first compound 0.0316 µM
[14] = second compound 1 µM, first compound 0.1 µM
[15] = second compound 1 µM, first compound 0.316 µM
[16] = second compound 1 µM, first compound 1 µM
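Also: spheroids exposed to compounds for seven days before readout.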

## CCN1CCN(Cc2ccc(Nc3ncc(F)c(-c4cc(F)c5nc(C)n(C(C)C)c5c4)n3)nc2)CC1 + CC(Nc1ncnc2nc[nH]c12)c1cc2cccc(Cl)c2c(=O)n1-c1ccccc1
Second compound 0.0316 µM
  pIC50: < 6.00
Second compound 0.1 µM
  pIC50: < 6.00
Second compound 0.316 µM
  pIC50: < 6.00
Second compound 1 µM
  pIC50: < 6.00
Second compound 3.16 µM
  pIC50: < 6.00
Second compound 10 µM
  pIC50: 8.28
Second compound 0.0316 µM, first compound 0.00316 µM
  viability, T/C: 95.3%
Second compound 0.0316 µM, first compound 0.01 µM
  viability, T/C: 82.4%
[1]
  viability, T/C: 75.6%
[2]
  viability, T/C: 74.4%
[3]
  viability, T/C: 67.2%
[4]
  viability, T/C: 76.8%
Second compound 0.1 µM, first compound 0.00316 µM
  viability, T/C: 81.7%
Second compound 0.1 µM, first compound 0.01 µM
  viability, T/C: 91.1%
[5]
  viability, T/C: 73.1%
[6]
  viability, T/C: 68.3%
[7]
  viability, T/C: 74.9%
[8]
  viability, T/C: 82.7%
Second compound 0.316 µM, first compound 0.00316 µM
  viability, T/C: 87.5%
Second compound 0.316 µM, first compound 0.01 µM
  viability, T/C: 97.1%
[9]
  viability, T/C: 73.2%
[10]
  viability, T/C: 68.7%
[11]
  viability, T/C: 69.8%
[12]
  viability, T/C: 78.4%
Second compound 1 µM, first compound 0.00316 µM
  viability, T/C: 79.1%
Second compound 1 µM, first compound 0.01 µM
  viability, T/C: 78.4%
[13]
  viability, T/C: 59.9%
[14]
  viability, T/C: 61.5%
[15]
  viability, T/C: 61.4%
[16]
  viability, T/C: 68.9%
Second compound 3.16 µM, first compound 0.00316 µM
  viability, T/C: 70.7%
Second compound 3.16 µM, first compound 0.01 µM
  viability, T/C: 66.1%
Second compound 3.16 µM, first compound 0.0316 µM
  viability, T/C: 56.3%
Second compound 3.16 µM, first compound 0.1 µM
  viability, T/C: 52.1%
Second compound 3.16 µM, first compound 0.316 µM
  viability, T/C: 60.1%
Second compound 3.16 µM, first compound 1 µM
  viability, T/C: 66%
Second compound 10 µM, first compound 0.00316 µM
  viability, T/C: 51.5%
Second compound 10 µM, first compound 0.01 µM
  viability, T/C: 50.9%
Second compound 10 µM, first compound 0.0316 µM
  viability, T/C: 41.2%
Second compound 10 µM, first compound 0.1 µM
  viability, T/C: 40.9%
Second compound 10 µM, first compound 0.316 µM
  viability, T/C: 40.6%
Second compound 10 µM, first compound 1 µM
  viability, T/C: 47.1%

## CC1(C)CCC(CN2CCN(c3ccc(C(=O)NS(=O)(=O)c4ccc(NCC5CCOCC5)c([N+](=O)[O-])c4)c(Oc4cnc5[nH]ccc5c4)c3)CC2)=C(c2ccc(Cl)cc2)C1 + COc1c(OCCCN2CCOCC2)ccc2c3n(c(=NC(=O)c4cnc(N)nc4)nc12)CCN3
Second compound 0.00316 µM
  pIC50: 5.16
Second compound 0.01 µM
  pIC50: 5.38
Second compound 0.0316 µM
  pIC50: > 7.50
Second compound 0.1 µM
  pIC50: > 7.50
Second compound 0.316 µM
  pIC50: > 7.50
Second compound 1 µM
  pIC50: > 7.50
Second compound 0.00316 µM, first compound 0.0316 µM
  viability, T/C: 75.4%
Second compound 0.00316 µM, first compound 0.1 µM
  viability, T/C: 77.4%
Second compound 0.00316 µM, first compound 0.316 µM
  viability, T/C: 74.3%
Second compound 0.00316 µM, first compound 1 µM
  viability, T/C: 81.1%
Second compound 0.00316 µM, first compound 3.16 µM
  viability, T/C: 78.2%
Second compound 0.00316 µM, first compound 10 µM
  viability, T/C: 36.9%
Second compound 0.01 µM, first compound 0.0316 µM
  viability, T/C: 62%
Second compound 0.01 µM, first compound 0.1 µM
  viability, T/C: 64.6%
Second compound 0.01 µM, first compound 0.316 µM
  viability, T/C: 68.4%
Second compound 0.01 µM, first compound 1 µM
  viability, T/C: 60.7%
Second compound 0.01 µM, first compound 3.16 µM
  viability, T/C: 57.4%
Second compound 0.01 µM, first compound 10 µM
  viability, T/C: 28.9%
[1]
  viability, T/C: 35.3%
[2]
  viability, T/C: 36.5%
[3]
  viability, T/C: 37.8%
[4]
  viability, T/C: 37.7%
Second compound 0.0316 µM, first compound 3.16 µM
  viability, T/C: 34.3%
Second compound 0.0316 µM, first compound 10 µM
  viability, T/C: 21.2%
[5]
  viability, T/C: 23.1%
[6]
  viability, T/C: 22.9%
[7]
  viability, T/C: 21.8%
[8]
  viability, T/C: 23%
Second compound 0.1 µM, first compound 3.16 µM
  viability, T/C: 20.6%
Second compound 0.1 µM, first compound 10 µM
  viability, T/C: 9.14%
[9]
  viability, T/C: 4.52%
[10]
  viability, T/C: 6.09%
[11]
  viability, T/C: 3.55%
[12]
  viability, T/C: 3.55%
Second compound 0.316 µM, first compound 3.16 µM
  viability, T/C: 3.34%
Second compound 0.316 µM, first compound 10 µM
  viability, T/C: 2.27%
[13]
  viability, T/C: 1.34%
[14]
  viability, T/C: 1.27%
[15]
  viability, T/C: 0.77%
[16]
  viability, T/C: 0.81%
Second compound 1 µM, first compound 3.16 µM
  viability, T/C: 1.49%
Second compound 1 µM, first compound 10 µM
  viability, T/C: 1.38%
